Test results published in US4314055A, “3,5-Disubstituted-2,4,6-triiodoanilides of polyhydroxy-monobasic acids” (Mallinckrodt, Inc., priority 1977, dated 1982).
Converted amounts (≈) assume the structure as drawn. Where two headings read alike, the source gives them in different places.

Key:
Swiss Albino mice [1] = experiment: Intracerebral Toxicity in Mice; assay type: in vivo, mouse (Swiss Albino, Charles River)
Method: (§1) Toxicity evaluations in accordance with three different techniques were carried out on aqueous solutions of the compounds of Examples I, II, IV, V, VI, VIII, IX, X, XI and XII. The techniques utilized are described below.
2. Intracerebral Toxicity in Mice
Swiss Albino mice (Charles River) were used. Fixed volumes of aqueous solutions of the iodinated compounds were injected intracerebrally via a 27-gauge needle (1/4 inch in length) according to the method of Haley et al. (Br. J. of Pharmac. 12:12-15, 1957). Again in the case of the compounds of Examples I, II and VI, supersaturated solutions were employed. In the case of the compound of Examples VIII and IX, solutions having an iodine concentration of 35% and 42%, respectively, were employed and in the case of the compound of Example X, a solution having an iodine concentration of 40% was employed. The animals were observed immediately following injections and daily throughout a seven day observation period. The LD50 values were calculated by the method of Litchfield and Wilcoxon (J. of Pharmac. and Exptl. Therap. 96:99-113, 1949).

water solubility = assay type: physicochemical
Method: A 15% w/v solution was prepared, seeded and stirred at room temperature.

dog [2] = experiment: tested as a bronchographic agent in a dog; assay type: in vivo
Method: (§2) The compound of Example I was tested as a bronchographic agent in a dog with good results. The compound of Example II was employed in intravenous pyelographic studies carried out in dogs. At a dosage of 250 mg. […] At a dosage of 350 mg. […] At a dosage of 350 mg. […] At a dosage of 190 mg. […] The compound of Examples VIII and IX was employed in intrathecal myelographic studies carried out in dogs. At dosages of 282 to 2400 mg. […] The compound of Examples VIII and IX was employed in intracisternal toxicity studies carried out in dogs using the cisterna magna as the route of administration. At a dosage of 1410 mg. […] The compound of Example X was employed in intravenous pyelographic studies carried out in rats. At a dosage of 500 mg. […] At a dosage of 70 mg. […] In a separate study, the compound of Examples XI and XII was administered to dogs by intraspinal administration at a dosage of 70 mg. I/kg.

Swiss Albino mice [3] = experiment: Acute Intravenous Toxicity Studies in Mice; assay type: in vivo, mouse (Swiss Albino, Charles River)
Method: as §1
1. Acute Intravenous Toxicity Studies in Mice
Except as noted below, Swiss Albino mice (Charles River) were dosed in the lateral tail vein with solutions of the above-noted iodinated compounds having an iodine concentration of 28.2% with a pH of 7.0-7.2. The solutions were injected at the rate of approximately 1 ml./min. In the case of the compound of Examples I, II and VI, supersaturated solutions having an iodine concentration of 10%, 28% and 28%, respectively, were employed. […] The LD50 values were calculated by the method of Litchfield and Wilcoxon (J. of Pharmac. and Exptl. Therap. 96:99-113, 1949).

[4] = tested on: Sprague-Dawley (Carworth) rats; experiment: Intracisternal Toxicity in Rats; assay type: in vivo, rat (Sprague-Dawley; conditions: two day observation
Method: as §1
3. Intracisternal Toxicity in Rats
Sprague-Dawley (Carworth) rats were used. The method used was a variation of the procedure outlined by Melartin et al. (Invest. Rad. 5:13-21, 1970). In the case of the compound of Examples VIII and IX, solutions having an iodine concentration of 35% and 40%, respectively, were employed and in the case of the compound of Example X, a solution having an iodine concentration of 40% was employed. After dosing, the animals were housed individually and observed for immediate reactions and periodically for a two day observation period. The LD50 values were calculated according to the method of Litchfield and Wilcoxon (J. of Pharmac. and Exptl. Therap. 96:99-115, 1949).

dogs [5] = experiment: intravenous pyelographic studies in dogs; assay type: in vivo, dog; conditions: 250 mg. I/kg.
Method: as §2

dog [6] = experiment: urinary tract visualization after injection into a dog; assay type: in vivo
Method: as §2

rats = experiment: intravenous pyelographic studies in rats; assay type: in vivo, rat; conditions: 500 mg. I/kg.
Method: as §2

dogs [7] = experiment: intrathecal myelographic studies in dogs; assay type: in vivo, dog
Method: as §2

dogs [8] = experiment: intracisternal toxicity studies in dogs (cisterna magna route); assay type: in vivo, dog; conditions: 1410 mg. I/kg.
Method: as §2

dogs [9] = experiment: radiographs after intraspinal administration to dogs; assay type: in vivo, dog; conditions: 70 mg. I/kg.
Method: as §2

[10] = supersaturated solution, seven day observation
[11] = water, read-out: water solubility
[12] = supersaturated solution, iodine concentration 28%
[13] = fixed volumes of aqueous solutions, seven day observation
[14] = iodine concentration 28.2%, pH 7.0-7.2, approx. 1 ml./min., seven-day observation
[15] = water, initially, read-out: solubility, initial

CNC(=O)c1c(I)c(NC(=O)[C@H](O)[C@@H](O)[C@H](O)[C@H](O)CO)c(I)c(C(=O)NC)c1I [Example I, 5-D-Gluconamido-2,4,6-triiodo-N,N'-dimethylisophthalamide]
LD50 Value Intracerebral (Mice) (Swiss Albino mice [1]; [10]): > 750 mg. I/kg. body wt.
solubility (water solubility; [11]): 12 mg/mL (≈ 15.7 mM)
bronchographic agent test result (dog [2]): good results
LD50 Value I.V. (Mice) (Swiss Albino mice [3]; supersaturated solution, iodine concentration 10%): > 10,000 mg. I/kg. body wt.
LD50 Value Intracisternal (Rats) [4]: > 150 mg. I/kg. body wt.

CNC(=O)c1c(I)c(NC(=O)[C@H](O)[C@@H](O)[C@H](O)[C@H](O)CO)c(I)c(C(=O)N(C)C)c1I [Example II, 5-D-Gluconamido-2,4,6-triiodo-N,N,N'-trimethylisophthalamide]
LD50 Value Intracerebral (Mice) (Swiss Albino mice [1]; [10]): 2,350 mg. I/kg. body wt.
solubility (water solubility; [11]): 284 mg/mL (≈ 365 mM)
LD50 Value I.V. (Mice) (Swiss Albino mice [3]; [12]): 8,085 mg. I/kg. body wt.
ureters and urinary bladder visualization (dogs [5]; five minutes after injection): the ureters and urinary bladder were visible
kidney visualization (dogs [5]; one minute after injection): kidney shadows were observed
LD50 Value Intracisternal (Rats) [4]: 100 mg. I/kg. body wt.

CNC(=O)c1c(I)c(NC(=O)[C@H](O)[C@@H](O)[C@H](O)[C@H](O)CO)c(I)c(N(C)C(C)=O)c1I [Example IV, 3-D-Gluconamido-2,4,6-triiodo-N-methyl-5-(N-methylacetamido)-benzamide]
LD50 Value Intracerebral (Mice) (Swiss Albino mice [1]; [13]): 1,175 mg. I/kg. body wt.
solubility (water solubility; [11]): ≥ 1000 mg/mL
urinary bladder visualization (dog [6]; 350 mg. I/kd. (so in the source), 40 minutes after injection): gave a shadow of the urinary bladder
LD50 Value I.V. (Mice) (Swiss Albino mice [3]; [14]): 6,400 mg. I/kg. body wt.
LD50 Value Intracisternal (Rats) [4]: 75 mg. I/kg. body wt.

CNC(=O)c1c(I)c(C(=O)N(C)C)c(I)c(N(C)C(=O)[C@@H](O)[C@H](O)[C@H](O)[C@@H](O)C=O)c1I [Example V, 2,4,6-triiodo-N,N,N'-trimethyl-5-(N-methyl-D-galacturonamido)-isophthalamide]
LD50 Value Intracerebral (Mice) (Swiss Albino mice [1]; [13]): 1,700 mg. I/kg. body wt.
solubility (water solubility; [11]): ≥ 1000 mg/mL
kidney and ureter visualization (dog [6]; 350 mg. I/kg., 5 minutes after injection): gave a kidney shadow with partial visualization of the ureters
LD50 Value I.V. (Mice) (Swiss Albino mice [3]; [14]): 1,700 mg. I/kg. body wt.
LD50 Value Intracisternal (Rats) [4]: 28 mg. I/kg. body wt.

CNC(=O)c1c(I)c(NC(C)=O)c(I)c(NC(=O)[C@H](O)[C@@H](O)[C@H](O)[C@H](O)CO)c1I [Example VI, 3-acetamido-5-D-gluconamido-2,4,6-triiodo-N-methylbenzamide]
LD50 Value Intracerebral (Mice) (Swiss Albino mice [1]; [10]): ~ 2,000 mg. I/kg. body wt.
solubility (water solubility; [11]): 86 mg/mL (≈ 113 mM)
kidney and ureter visualization (dog [6]; 190 mg. I/kg., one minute after injection): gave a kidney shadow with partial visualization of the ureters
LD50 Value I.V. (Mice) (Swiss Albino mice [3]; [12]): 11,000 mg. I/kg. body wt.
LD50 Value Intracisternal (Rats) [4]: 180 mg. I/kg. body wt.

CNC(=O)c1c(I)c(CO)c(I)c(NC(=O)[C@H](O)[C@@H](O)[C@H](O)[C@H](O)CO)c1I [Example VII, 3-D-gluconamido-5-hydroxymethyl-2,4,6-triiodo-N-methylbenzamide]
solubility (water solubility; [11]): 18.6 mg/mL (≈ 25.3 mM)

CNC(=O)c1c(I)c(NC(=O)C(=O)[C@@H](O)[C@H](O)[C@@H](O)CO)c(I)c(N(CCO)C(C)=O)c1I [Example X, 3-[N-(2-hydroxyethyl)acetamido]-2,4,6-triiodo-5-(2-keto-L-gulonamido)-N-methylbenzamide]
LD50 Value Intracerebral (Mice) (Swiss Albino mice [1]; Iodine Conc. 40%): 2,500 mg. I/kg. body wt.
urinary bladder contrast (rats; 10 and 15 minutes after dosing): showed good contrast
collecting pelvis of the right kidney filling (rats; 10 minutes): showed good filling
kidney and ureter visualization (rats; five minutes after injection): faint kidney and portions of ureters were observed
solubility on standing (water solubility; after standing several days, analytical sample): a precipitate formed after standing several days
solubility, initial (water solubility; initially): 100 % (w/v)
solubility at 504 h (water solubility; water, after 21 days): 640 mg/mL (≈ 795 mM)
solubility (water solubility; [15]): 1000 mg/mL (≈ 1240 mM)
LD50 Value I.V. (Mice) (Swiss Albino mice [3]; [14]): ~ 10,500 mg. I/kg. body wt.
LD50 Value Intracisternal (Rats) ([4]; Iodine Conc. 40%): 405 mg. I/kg. body wt.

CNC(=O)c1c(I)c(NC(=O)[C@H](O)[C@@H](O)[C@H](O)[C@H](O)CO)c(I)c(N(CCO)C(C)=O)c1I [Examples VIII and IX, 3-gluconamido-5-[N-(2-hydroxyethyl)acetamido]-2,4,6-triiodo-N-methylbenzamide]
LD50 Value Intracerebral (Mice) (Swiss Albino mice [1]; Iodine Conc. 35%): > 2,679 mg. I/kg. body wt.
LD50 Value Intracerebral (Mice) (Swiss Albino mice [1]; Iodine Conc. 42%): 2,200 mg. I/kg. body wt.
filling of subarachnoid space (dogs [7]; intrathecal, 282 to 2400 mg. I/kg., extent depending on volume injected and size of animal): good filling of the subarachnoid space from the cul-de-sac to the thoracic, cervical and cisterna magna
subarachnoid space filling (dogs [8]): partial filling of the cerebral subarachnoid space and good cervical and thoracic subarachnoid space filling
solubility (water solubility; water, printed as slightly less than, read-out: aqueous solubility): < 1000 mg/mL
LD50 Value I.V. (Mice) (Swiss Albino mice [3]; Iodine Conc. 40%): 14,500 mg. I/kg. body wt.
LD50 Value I.V. (Mice) (Swiss Albino mice [3]; [14]): > 13,000 mg. I/kg. body wt.
LD50 Value Intracisternal (Rats) ([4]; Iodine Conc. 35%): > 505 mg. I/kg. body wt.
LD50 Value Intracisternal (Rats) ([4]; Iodine Conc. 40%): 590 mg. I/kg. body wt.

CNC(=O)c1c(I)c(NC(=O)[C@H](O)[C@@H](O)[C@H](O)[C@H](O)CO)c(I)c(NC(=O)[C@H](O)[C@@H](O)[C@H](O)[C@H](O)CO)c1I [Examples XI and XII, 3,5-bis-D-gluconamido-2,4,6-triiodo-N-methylbenzamide]
LD50 Value Intracerebral (Mice) (Swiss Albino mice [1]; [13]): 1,330 mg. I/kg. body wt.
radiographs, filling (dogs [7]; intrathecal injection, 70 mg. I/kg.): fair filling with some degree of scalloping
turbidity of solution (water solubility; 15% w/v solution, seeded and stirred at room temperature): turbidity developed within two hours
solubility thermodynamic (water solubility; water, 15% w/v solution seeded, stirred at room temperature, filtered, filtrate aliquot evaporated to constant weight at 85° C.): 120 mg/mL (≈ 133 mM)
solubility at 24 h (water solubility; water, after 24 hr., read-out: aqueous solubility after 24 hr.): < 150 mg/mL
solubility (water solubility; [15]): 1000 mg/mL (≈ 1110 mM)
radiographs, definition of lumbar and sacral spinal spaces (dogs [9]): the lumbar and sacral spinal spaces were well defined
LD50 Value I.V. (Mice) (Swiss Albino mice [3]; [14]): 20,500 mg. I/kg. body wt.
LD50 Value Intracisternal (Rats) [4]: > 560 mg. I/kg. body wt.

CNC(=O)c1c(I)c(NC(=O)C(=O)[C@@H](O)[C@H](O)[C@@H](O)CO)c(I)c(C(=O)N(C)C)c1I [III, 2,4,6-Triiodo-5-(2-keto-L-gulonamido)-N,N,N'-trimethylisophthalamide]
solubility (water solubility; [11]): 37.5 mg/mL (≈ 48.4 mM)
